How the values were obtained:
[1] = tested on: adult American dog tick (Dermacentor variabilis); assay: Therapeutic (knockdown) and residual efficacy against adult American dog tick infestations on dogs, oral; format: in vivo
Description: (§1) The therapeutic (knockdown) and residual efficacy of 5, administered orally at a point dose of 25 mg/kg bodyweight, was evaluated against adult American dog tick (D. variabilis) infestations on dogs. Six beagle dogs were allocated to one of two treatment groups, an untreated control group (n=4 dogs) or 5 group (n=2 dogs). On Day 0, two dogs were treated with 5 via oral gavage (25 mg/ml 5, dissolved in a solution of 55% polyethylene glycol-300, 35% propylene glycol and 10% water) at a point dose of approximately 25 mg/kg. Twenty-four (24) hours before treatment (Day −1), all dogs were infested with approximately 50 unfed, adult-stage American dog ticks (D. variabilis; approximately 50% male and 50% female). On Day 1, approximately 24 hours after treatment, thumb counts were conducted to determine the number and life-status classification of ticks present on all dogs (normal, moribund or dead; attached or detached). Ticks were not removed during thumb counts. On Day 2, approximately 48 hours after treatment, all ticks were classified and removed from dogs. Dogs were re-infested with approximately 50 unfed, adult D. variabilis ticks on Days 5 and 12, with tick classification, counts and removal on Days 7 and 14 (approximately 48 hours after each infestation).
(§2) The therapeutic (knockdown) and residual efficacy of 7 and 8, each administered orally at a point dose of 25 mg/kg bodyweight, was evaluated against adult tick (Dermacentor variabilis and Rhipicephalus sanguineus) and adult cat flea (Ctenocephalides felis) infestations on dogs. Twelve (12) male and female beagle dogs were randomly allocated to one of three treatment groups, four (4) dogs per group: Untreated control; 7, 25 mg/kg; and 8, 25 mg/kg. On Day −1, all dogs were infested with approximately 50 unfed, adult D. variabilis ticks. On Day 0, dogs were orally administered gelatin capsules containing either 7 or 8 (50% technical active, 47% microcrystalline cellulose and 3% croscarmellose sodium, w/w). Ticks were counted and classified, but not removed, on all dogs on Day 1, approximately 24 hours after treatment. On Day 2, approximately 48 hours after treatment, ticks were counted, classified and removed. Dogs were re-infested with the same number of D. variabilis ticks on Days 5, 12, 19 and 28 and tick counts were conducted on Days 7, 14, 21 and 30.
(§3) The therapeutic (knockdown) and residual efficacy of 7, administered orally at a point dose of 35 mg/kg bodyweight, was evaluated against adult tick (Dermacentor variabilis and Rhipicephalus sanguineus) and adult cat flea (Ctenocephalides felis) infestations on dogs. Twelve (12) male and female beagle dogs were allocated to either an untreated, negative control group or 7 group (n=6 dogs per group). Dogs were infested with approximately 50 unfed, adult D. variabilis ticks on Days −1, 5, 12, 19, 28, 35 and 42. On Day 0, dogs were orally administered gelatin capsules containing Compound 8194 (50% technical active, 47% microcrystalline cellulose and 3% croscarmellose sodium, w/w) at a point dose of 35 mg/kg. D. variabilis tick counts and classification were conducted on Day 1 (thumb count, approximately 24 hours after treatment) and Days 2, 7, 14, 21, 30, 37 and 44 (approximately 48 hours after treatment). Following removal of D. variabilis ticks on Day 30, all dogs were co-infested with approximately 50 unfed, adult brown dog ticks (R. sanguineus) and approximately 100 unfed, adult cat fleas (C. felis). Brown dog tick and cat flea counts were conducted on Day 32 (approximately 48 hours after infestation). GM percent efficacy of treatments against both tick species and fleas was calculated using the following formula: […]
The therapeutic (knockdown) and residual efficacy of S-enantiomer, 9, administered orally at a point dose of 25 mg/kg bodyweight, was evaluated against adult tick (Dermacentor variabilis and Rhipicephalus sanguineus) and adult cat flea (Ctenocephalides felis) infestations on dogs. […]

[2] = tested on: cat flea (Ctenocephalides felis); assay: Residual efficacy against adult cat flea infestations on dogs, oral; format: in vivo; settings: Day 32
Description: (§4) Immediately following removal of D. variabilis ticks on Day 30, dogs were co-infested with approximately 50 adult, unfed brown dog ticks (R. sanguineus, approximately 50% male and 50% female) and approximately 100 adult, unfed cat fleas (C. felis, approximately 50% male and 50% female). Ticks and fleas were counted and removed on Day 32 (approximately 48 hours after infestation). GM percent efficacy of treatments against both tick species and fleas was calculated using the following formula: […]
as §3
(§5) The therapeutic (knockdown) and residual efficacy of S-enantiomer, 9, administered orally at a point dose of 25 mg/kg bodyweight, was evaluated against adult tick (Dermacentor variabilis and Rhipicephalus sanguineus) and adult cat flea (Ctenocephalides felis) infestations on dogs. Twelve (12) male and female beagle dogs were allocated to either an untreated, negative control group or 9 group (n=6 dogs per group). Dogs were infested with approximately 50 unfed, adult D. variabilis ticks on Days −1, 5, 12, 19, and 28. On Day 0, dogs were orally administered gelatin capsules containing 9 (50% technical active, 47% microcrystalline cellulose and 3% croscarmellose sodium, w/w) at a point dose of 25 mg/kg. D. variabilis tick counts and classification were conducted on Day 1 (thumb count, approximately 24 hours after treatment) and Days 2, 7, 14, 21 and 30 (approximately 48 hours after treatment). Following removal of D. variabilis ticks on Day 30, all dogs were co-infested with approximately 50 unfed, adult brown dog ticks (R. sanguineus) and approximately 100 unfed, adult cat fleas (C. felis). Brown dog tick and cat flea counts were conducted on Day 32 (approximately 48 hours after infestation). GM percent efficacy of treatments against both tick species and fleas was calculated using the following formula: […]

[3] = tested on: Lone star tick larvae (Amblyomma americanum); assay: Larval immersion microassay against larval-stage Lone star ticks; settings: Amblyomma americanum, 24 h, read-out: activity (percent larval mortality)
Description: The larval immersion microassay was conducted as described in detail in White, et al., J. Med. Entomol. 41: 1034-1042 (2004). Compounds of the invention were formulated in dimethylsulfoxide (DMSO) to prepare a stock solution at a concentration of at least 10 mM. Using 96-well microtiter plates, an aliquot of the mM sample was subsequently diluted in a water-based solution containing 1% ethanol and 0.2% Triton X-100, to obtain the desired concentration (typically 0.3 mM or lower) of compound in a volume of 0.1 ml (minimum n=3 replicates per compound or concentration). Approximately 30-50 Lone star tick larvae (Amblyomma americanum) were submerged into each well containing compounds. After a 30 minute immersion period, larvae were removed with a wide-bore pipette tip in 0.05 ml of fluid, dispensed into a commercial paper tissue biopsy bag which was sealed at the top with a plastic dialysis clip, inverted and allowed to air dry for 60 minutes. Bags containing larvae were then incubated at approximately 27 degrees Celsius and >90% relative humidity. After 24 hours, bags were opened, live and dead larvae were counted and percent larval mortality was calculated.
7 and 8 contain one chiral center each, and are racemic mixtures comprised of approximately 50% R- and 50% S-enantiomer. In vitro and surrogate animal (rat) studies were conducted to evaluate the biological activity of the R- and S-enantiomers of 7 and 8. For the in vitro study, larvae of the Lone star tick (Amblyomma americanum) were exposed to 9, 10, 11 and 12 using the larval immersion microassay at a concentration of no greater than 0.3 mM. Following exposure, larvae were removed, transferred to a tissue biopsy bag and incubated at approximately 27 degrees Celsius and >90% relative humidity. After 24 hours, biopsy bags were opened and the numbers of live and dead larvae were determined

[4] = Tolerability of oral treatment in dogs; format: in vivo, dog
Description: as §1, §2
The therapeutic (knockdown) and residual efficacy of 7, administered orally at a point dose of 35 mg/kg bodyweight, was evaluated against adult tick (Dermacentor variabilis and Rhipicephalus sanguineus) and adult cat flea (Ctenocephalides felis) infestations on dogs. Twelve (12) male and female beagle dogs were allocated to either an untreated, negative control group or 7 group (n=6 dogs per group). Dogs were infested with approximately 50 unfed, adult D. variabilis ticks on Days −1, 5, 12, 19, 28, 35 and 42. On Day 0, dogs were orally administered gelatin capsules containing Compound 8194 (50% technical active, 47% microcrystalline cellulose and 3% croscarmellose sodium, w/w) at a point dose of 35 mg/kg. […] GM percent efficacy of treatments against both tick species and fleas was calculated using the following formula: […]
The therapeutic efficacy and speed of kill of 7, administered orally at a point dose of 20 mg/kg bodyweight, was evaluated against adult cat flea (Ctenocephalides felis) infestations on dogs. […]

[5] = tested on: brown dog tick (Rhipicephalus sanguineus); assay: Residual efficacy against adult brown dog tick infestations on dogs, oral; format: in vivo; settings: Day 32
Description: as §4, §3, §5

[6] = tested on: American dog tick (Dermacentor variabilis) nymphs; assay: Efficacy against nymphal-stage American dog ticks on rats, oral; format: in vivo; settings: fipronil positive control, oral 10 mg/kg bodyweight, all studies
Description: Evaluations were conducted using a modified version of the assay as described in Gutierrez et al., J. Med. Entomol. 43(3): 526-532 (2006). This assay may be modified by simply using different tick species (the reference describes Amblyomma americanum ticks), such as Dermacentor variabilis or Rhipicephalus sanguineus ticks, as well as different life-stages (larval, nymphal or adult). Further, the reference describes using topical application methods, but oral, transdermal and subcutaneous injection routes of administration may be used.
In these studies, adult male or female rats, approximately 300 grams in size, were randomly assigned to a treatment group or a control (untreated negative control or fipronil positive control) group. Each group consisted of three (3) to five (5) rats. […] On Day 2, approximately forty-eight (48) hours after treatment, live and dead ticks were removed from animals and counted.
Live tick counts were transformed using the natural logarithm transformation plus one (Ln count+1); addition of one to each count served to adjust for counts that were zero. […] GM percent efficacy of treatments was calculated using the following formula:
Enantiomers were evaluated for activity against American dog tick (Dermacentor variabilis) nymphs on rats. […] On Day 2, approximately forty-eight (48) hours after treatment, live and dead ticks were removed from animals and counted. […]

[7] = Table 2, oral capsule 25 mg/kg, Day 2
[8] = Table 2, oral capsule 25 mg/kg, Day 7
[9] = Table 2, oral capsule 25 mg/kg, Day 14
[10] = Table 2, oral capsule 25 mg/kg, Day 21
[11] = Table 2, oral capsule 25 mg/kg, Day 30
[12] = Table 6, oral capsule 25 mg/kg, Day 2
[13] = Table 6, oral capsule 25 mg/kg, Day 7
[14] = Table 6, oral capsule 25 mg/kg, Day 14
[15] = Table 6, oral capsule 25 mg/kg, Day 21

SMILES: Cc1cc(C2=NOC(c3cc(Cl)c(F)c(Cl)c3)(C(F)(F)F)C2)ccc1C(=O)NCc1ccc2c(c1)B(O)OC2(C)C (racemic) [Compound 8, 4-(5-(3,5-Dichloro-4-fluorophenyl)-5-(trifluoromethyl)-4,5-dihydroisoxazol-3-yl)-N-((1-hydroxy-3,3-dimethyl-1,3-dihydrobenzo[c][1,2]oxaborol-6-yl)methyl)-2-methylbenzamide]
- continued residual efficacy ([1]; Example 6, oral capsule 25 mg/kg, through at least 14 days): 100%
- Geometric mean group live parasite counts ([1]; Table 2, oral capsule 25 mg/kg, Day 1): 0.0
- % efficacy [1, 7]: (100) %
- Geometric mean group live parasite counts [1, 7]: 0.0
- % efficacy [1, 8]: (100) %
- Geometric mean group live parasite counts [1, 8]: 0.0
- % efficacy [1, 9]: (100) %
- Geometric mean group live parasite counts [1, 9]: 0.0
- % efficacy [1, 10]: (98.4) %
- Geometric mean group live parasite counts [1, 10]: 0.7
- % efficacy [1, 11]: (81.0) %
- Geometric mean group live parasite counts [1, 11]: 6.7
- Geometric mean group live parasite counts ([2]; Table 2, oral capsule 25 mg/kg): 7.1
- mortality at 300 µM [3]: ≥ 80%
- tolerability ([4]; Example 6, oral capsule 25 mg/kg): well tolerated
- Geometric mean group live parasite counts ([5]; Table 2, oral capsule 25 mg/kg): 4.1

SMILES: Cc1cc(C2=NO[C@@](c3cc(Cl)c(Cl)c(Cl)c3)(C(F)(F)F)C2)ccc1C(=O)NCc1ccc2c(c1)B(O)OC2(C)C [Compound 9, (S)—N-((1-hydroxy-3,3-dimethyl-1,3-dihydrobenzo[c][1,2]oxaborol-6-yl)methyl)-2-methyl-4-(5-(3,4,5-trichlorophenyl)-5-(trifluoromethyl)-4,5-dihydroisoxazol-3-yl)benzamide]
- continued residual efficacy ([1]; Example 10, oral capsule 25 mg/kg, through Day 21): 100%
- Geometric mean group live parasite counts ([1]; Table 6, oral capsule 25 mg/kg, Day 1): 0.0
- % efficacy [1, 12]: (100) %
- Geometric mean group live parasite counts [1, 12]: 0.0
- % efficacy [1, 13]: (100) %
- Geometric mean group live parasite counts [1, 13]: 0.0
- % efficacy [1, 14]: (100) %
- Geometric mean group live parasite counts [1, 14]: 0.0
- % efficacy [1, 15]: (100) %
- Geometric mean group live parasite counts [1, 15]: 0.0
- Geometric mean group live parasite counts ([1]; Table 6, oral capsule 25 mg/kg, Day 30): 1.1
- Geometric mean group live parasite counts ([2]; Table 6, oral capsule 25 mg/kg): 0.9
- mortality at 300 µM [3]: ≥ 80%
- tolerability ([4]; Example 10, oral capsule 25 mg/kg): well tolerated
- Geometric mean group live parasite counts ([5]; Table 6, oral capsule 25 mg/kg): 0.5

SMILES: N#Cc1nn(-c2c(Cl)cc(C(F)(F)F)cc2Cl)c(N)c1[S+]([O-])C(F)(F)F (centres unmarked) [Fipronil, fipronil, reference compound]
- efficacy (% reduction in live tick counts) [6]: > 95%
